Key:
nitrilase bll6402 [1] = biological target: T1, nitrilase bll6402 (Bradyrhizobium diazoefficiens, UniProt Q89GE3); test: Substrate specificity: specific/relative activity by ammonia release; assay type: biochemical, Bradyrhizobium japonicum USDA110; settings: for Relative Activity: 25 mM substrate, pH 7.2, 30° C., phenylacetonitrile defined as 100
Experimental: The standard assays were carried out by mixing the substrate nitrile and purified nitrilase enzyme in potassium phosphate buffer (100 mM, pH 7.2). The reaction mixture was incubated at 30° C. Samples (100 μL) of the reaction mixture were withdrawn at several time intervals and quenched with 10 μl of 1 M HCl. The amount of ammonia produced in the reaction was measured using Bertholet assay as follows: A 100 μL aliquot of each of the following assay reagents was added subsequently: 0.02 M NaOCl, 0.33 M sodium phenoxide and 0.01% sodium nitroprusside solution. The mixture was then heated at 95° C. for 2 min, cooled rapidly in ice-water bath, and 200 μl of the mixture was then placed in a 96-well plate to measure the absorbance at 640 nm using SpectraMax M2 microplate reader (Molecular Devices). The amount of ammonia released during the hydrolysis was calculated by comparison with the standard curve obtained with standard ammonium chloride solution, and the activity was defined as the number of μmol of ammonia produced in 1 minute by 1 mg of enzyme (μmol·min^−1·mg^−1). To determine the kinetic parameters of the purified protein for mandelonitrile, activity assays were performed with different substrate concentrations, and Vmax and Km were calculated by best fitting the curve to experimental data according to Michaelis equation.
The specific activities of nitrilase bll6402 toward 24 different nitrites with structural diversity were measured by the quantification of the amount of ammonia released during the hydrolysis. A reaction mixture containing 20 or 40 μg of purified bll6402 enzyme, 25 mM substrate in potassium phosphate buffer (1 ml, 100 mM, pH 7.2) was incubated at 30° C. The conversion was determined by measuring the amount of ammonia produced in the reaction using Bertholet assay as described above.

nitrilase bll6402 [2] = biological target: T1, nitrilase bll6402; test: Selective hydrolysis of dinitriles to cyanocarboxylic acids; assay type: biochemical, Bradyrhizobium japonicum USDA110; settings: selective hydrolysis of dinitrile
Text: Because of the synthetic importance of selective hydrolysis of dinitriles to […], nitrilase bll6402 was studied toward the hydrolysis of a series of dinitriles (e.g., scheme 6). [drawing 6]
The selectivity was not dependent on the chain length. This was different from the results obtained with nitrilases from Arabidopsis thaliana, acidovorax facilis 72W and cyanobacterium Synechocystis sp. strain PCC 6803, in which di-acids were obtained as the chain length increased.

nitrilase bll6402 [3] = biological target: T1, nitrilase bll6402; test: Regioselective hydrolysis of 1-cyanocycloalkaneacetonitriles; assay type: biochemical, Bradyrhizobium japonicum USDA110; settings: 200 mg dinitrile, 10 mg nitrilase, pH 7.2, 30° C.
Experimental: The general procedure was followed: 1-Cyanocycloalkaneacetonitiles (200 mg) was treated with the nitrilase (10 mg) in potassium phosphate buffer (50 ml, 100 mM, pH=7.2). The reaction mixture was incubated at 30° C. and monitored by ^13C NMR. When dinitrile was consumed, the mixture was acidified with 1 N HCl solution to pH˜5, saturated with NaCl and extracted with ethyl acetate. The organic extract was dried over anhydrous sodium sulfate. Removal of solvent provided the desired product, which was further purified by preparative TLC using ethyl acetate-hexane (35/65, v/v) as eluting solvent.

nitrilase bll6402 [4] = biological target: T1, nitrilase bll6402; test: Enantioselective hydrolysis of β-hydroxy nitriles; assay type: biochemical, Bradyrhizobium japonicum USDA110
Experimental: β-Hydroxy nitrites were prepared by the cyanization of α-bromoketones with sodium cyanide followed by NaBH4 reduction. The obtained β-hydroxy nitrites were treated with purified nitrilase bll6402 in potassium phosphate buffer (100 mM, pH 7.0), and the reaction mixture was incubated overnight at 30° C. The mixture was then saturated with NaCl and extracted with ethyl acetate. The extract was dried over sodium sulfate, and evaporation of the solvent under reduced pressure afforded the crude products. The β-hydroxy carboxylic acids were separated from unreacted β-hydroxy nitrites by preparative thin-layer chromatography.
The ee values of both the product acids and the recovered nitrites were measured by chiral HPLC analysis, and their absolute configurations were determined by comparing the sign of optical rotation with the literature data. The enantiomeric ratios (E) were calculated using the equations proposed by Sih et al. (J. Am. Chem. Soc. 1982, 104, 7294-7299). The results are presented in Table 6 together with the data for the hydrolysis of mandelonitrile under the same conditions.

nitrilase bll6402 [5] = biological target: T1, nitrilase bll6402; test: Hydrolysis of aromatic α-hydroxy nitriles, conversion by HPLC; assay type: biochemical, Bradyrhizobium japonicum USDA110; settings: 25 mM nitrile, 0.16 mg nitrilase in 1 mL, pH 7.2, overnight at 30° C.
Experimental: To further characterize the efficiency of nitrilase b116402 to catalyze the hydrolysis of mandelonitrile derivatives to the corresponding carboxylic acids, the hydrolysis of several aromatic α-hydroxy nitrites were carried out and the product carboxylic acids were characterized by HPLC analysis. An example procedure was as follows: aromatic α-hydroxynitriles (25 mM) were treated with 0.16 mg nitrilase bll6402 in 1 mL of potassium phosphate buffer (100 mM, pH 7.2). The reaction mixture was incubated overnight at 30° C. A sample was withdrawn and analyzed by HPLC (column: Agilent C8, eluent: MeOH:H2O=20:80, flow rate: 1 mL/min, detector: 254 nm) and the products were identified by comparison with the authentic standards.

[6] = system: arylacetonitrilases from Alcaligenes faecalis ATCC8750 and JM3; settings: known arylacetonitrilases; cited from earlier work
nitrilase bll6402 [7] = biological target: T1, nitrilase bll6402; assay type: biochemical, Bradyrhizobium japonicum USDA110; settings: pH 7.2
[8] = Effects of temperature, pH and organic solvents on nitrilase activity; assay type: biochemical; settings: 30% (v/v) of hexane, tert-butyl methyl ether or toluene; 30° C., pH 7.1, 4 hours
Experimental: For the determination of temperature effect, a mixture of nitrilase (0.5 mg) with benzyl cyanide (50 mM) in 1.0 ml of potassium phosphate buffer (100 mM, pH 7.1) was incubated at 25° C., 30° C., 37° C. and 45° C., respectively. Aliquots (100 μl) were taken after 1, 2, 4, and 16 hrs intervals, and acidified with 10 μl of 1M HC1. The formed phenylacetic acid was extracted into 200 μl of tert-butyl methyl ether, dried over anhydrous sodium sulfate, and quantified by GC analysis after converting to methyl ester with diazomethane.
The pH effect was studied using the following buffer: sodium citrate buffer (pH 4.91 and 5.44), potassium phosphate buffer (pH 6.07, 6.52, 7.10, 7.58, 7.98 and 8.49) and sodium bicarbonate buffer (pH 8.98). A mixture of nitrilase (0.5 mg) with benzyl cyanide (50 mM) in 1.0 ml of the respective buffer (100 mM) was incubated at 30° C. […] The formed phenylacetic acid was extracted into 200 μl of tert-butyl methyl ether, dried over anhydrous sodium sulfate, and quantified by GC analysis after converting to methyl ester with diazomethane.
The organic solvent effects were evaluated with dimethyl sulfoxide (DMSO), tert-butyl methyl ether, hexane, toluene and butyl acetate. […] The formed phenylacetic acid was extracted into 1 ml of tert-butyl methyl ether, dried over anhydrous sodium sulfate, and quantified by GC analysis after converting to methyl ester with diazomethane.

[9] = pH 7.0, overnight at 30° C., isolated yield

T1 sequence (Q89GE3 whole entry, looked up): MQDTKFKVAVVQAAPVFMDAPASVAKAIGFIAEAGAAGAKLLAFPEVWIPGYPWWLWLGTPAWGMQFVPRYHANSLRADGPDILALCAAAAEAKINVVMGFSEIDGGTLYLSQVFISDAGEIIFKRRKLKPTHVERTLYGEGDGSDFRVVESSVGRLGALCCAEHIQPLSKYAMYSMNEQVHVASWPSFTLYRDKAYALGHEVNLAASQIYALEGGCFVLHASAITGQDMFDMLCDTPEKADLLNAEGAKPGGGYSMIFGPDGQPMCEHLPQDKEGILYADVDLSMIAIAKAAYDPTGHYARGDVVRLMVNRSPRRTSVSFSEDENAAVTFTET

N#CCCCCC#N [1,4-Dicyanobutane]
Relative Activity (nitrilase bll6402 [1]): 5
Yield (%) of cyanocarboxylic acid (nitrilase bll6402 [2]): 97%

N#CCCCCCC#N [1,5-Dicyanopentane]
Yield (%) of cyanocarboxylic acid (nitrilase bll6402 [2]): 90%

N#CCCCCCCC#N [1,6-Dicyanohexane]
Yield (%) of cyanocarboxylic acid (nitrilase bll6402 [2]): 88%

N#CCC1(C#N)CCCCC1 [1-cyancyclohexaneacetonitrile]
isolated yield of corresponding cyanocarboxylic acid (nitrilase bll6402 [3]): 88%

N#CCC1(C#N)CCCCCC1 [1-cyanocycloheptaneacetonitrile]
isolated yield of corresponding cyanocarboxylic acid (nitrilase bll6402 [3]): 54%

N#CCC1(C#N)CCCC1 [1-cyanocyclopentaneacetonitrile]
isolated yield of corresponding cyanocarboxylic acid (nitrilase bll6402 [3]): 92%

CC(C#N)CCC#N (stereo not drawn) [2-Methylglutaronitrile]
Relative Activity (nitrilase bll6402 [1]): 3

N#CC(N)c1ccccc1 (stereo not drawn) [2-Phenylglycinonitrile]
Relative Activity (nitrilase bll6402 [1]): 3

N#CCCN [3-Aminopropionitrile]
Relative Activity (nitrilase bll6402 [1]): 1

N#CCCO [3-Hydroxypropionitrile]
Relative Activity (nitrilase bll6402 [1]): 1

N#CCc1c[nH]c2ccccc12 [3-Indolylacetonitrile]
Relative Activity (nitrilase bll6402 [1]): 2

CC(CC#N)c1ccccc1 (stereo not drawn) [3-phenylbutyronitrile]
hydrolysis by nitrilase bll6402 (result in words) (nitrilase bll6402 [4]; same conditions as β-hydroxy nitriles): not hydrolyzed

CC(=O)c1ccc(C#N)cc1 [4-Acetylbenzonitrile]
Relative Activity (nitrilase bll6402 [1]): 2

N#CCCCCl [4-Chlorobutyronitrile]
Relative Activity (nitrilase bll6402 [1]): 6

N#CCCCc1ccccc1 [4-Phenylbutyronitrile]
Relative Activity (nitrilase bll6402 [1]): 4

C=CCC#N [Allyl cyanide]
Relative Activity (nitrilase bll6402 [1]): 2

N#Cc1ccccc1 [Benzonitrile]
Relative Activity (nitrilase bll6402 [1]): 1

CC=CC#N [Crotononitrile]
Relative Activity (nitrilase bll6402 [1]): 3

N#C/C=C/C#N [Fumaronitrile]
Yield (%) of cyanocarboxylic acid (nitrilase bll6402 [2]): 84%

N#CCCCC#N [Glutaronitrile]
Yield (%) of cyanocarboxylic acid (nitrilase bll6402 [2]): 93%

CCCCCCC#N [Heptanenitrile]
Relative Activity (nitrilase bll6402 [1]): 22

CCCCCC#N [Hexanenitrile]
Relative Activity (nitrilase bll6402 [1]): 16

N#CCCc1ccccc1 [Hydrocinnamonitrile]
Relative Activity (nitrilase bll6402 [1]): 13

N#CC(O)c1ccccc1 (stereo not drawn) [Mandelonitrile]
Relative Activity (nitrilase bll6402 [1]): 460
activity relative to that of phenylacetonitrile (nitrilase bll6402 [1]; hydrolysis by nitrilase bll6402): 4.6 times
Conversion(%) (nitrilase bll6402 [5]): 98%
product acid (S)-2 ee (%) (nitrilase bll6402 [4]; pH 7.0, overnight at 30° C., chiral HPLC): 0%
product acid (S)-2 yield (%) (nitrilase bll6402 [4]; [9]): 98%
recovered nitrile (R)-1 yield (%) (nitrilase bll6402 [4]; [9]): 0%
activity as % of that for phenylacetonitrile [6]: 12-15%

CSCC#N [Methylthioacetonitrile]
Relative Activity (nitrilase bll6402 [1]): 1
Yield (%) of product carboxylic acid (nitrilase bll6402 [7]): 96%

N#CCc1ccccc1 [Phenylacetonitrile]
Relative Activity (nitrilase bll6402 [1]): 100

N#CCCCCCCCCC#N [Sebeconitrile]
Yield (%) of cyanocarboxylic acid (nitrilase bll6402 [2]): 88%

N#CCCC#N [Succinonitrile]
Yield (%) of cyanocarboxylic acid (nitrilase bll6402 [2]): 97%

CCCCC#N [Valeronitrile]
Relative Activity (nitrilase bll6402 [1]): 6

CCCC#N [n-Butyronitrile]
Relative Activity (nitrilase bll6402 [1]): 3
Yield (%) of product carboxylic acid (nitrilase bll6402 [7]): 61%

CC(C)(C#N)C#N [α,α-Dimethylmalononitrile]
Yield (%) of cyanocarboxylic acid (nitrilase bll6402 [2]): 93%

N#CC(O)c1cccc(O)c1 (stereo not drawn) [α-Hydroxy-α-(m-hydroxyphenyl)acetonitrile]
Conversion(%) (nitrilase bll6402 [5]): 94%

N#CC(O)c1ccc(O)cc1 (stereo not drawn) [α-Hydroxy-α-(p-hydroxyphenyl)acetonitrile]
Conversion(%) (nitrilase bll6402 [5]): 88%

CN(C)C(C#N)c1ccccc1 (stereo not drawn) [α-N,N-Dimethylaminophenylacetonitrile]
Relative Activity (nitrilase bll6402 [1]): 1

CCC(C#N)c1ccccc1 (stereo not drawn) [α-Phenylbutyronitrile]
Relative Activity (nitrilase bll6402 [1]): 8

C[Si](C)(C)OC(C#N)c1ccccc1 (stereo not drawn) [α-Trimethylsilyloxyphenylacetonitrile]
Relative Activity (nitrilase bll6402 [1]): 165
Conversion(%) (nitrilase bll6402 [5]): 99%

CC(C#N)c1ccccc1 (stereo not drawn) [α-phenylpropionitrile]
Relative Activity (nitrilase bll6402 [1]): 10

nitrilase bll6402: nitrilase (mandelonitrile hydrolase) from Bradyrhizobium japonicum USDA110, amino acid SEQ ID NO: 2, expressed in E. coli
retained activity in biphasic systems [8]: more than 70%

From patent US20070178575A1, “Identification Of A Nitrilase From B. Japonicum By Rational Genome Mining And Methods Of Use” (priority 2005, published 2007)
